Assay results reported in the supplement of paper PMC9663587.

Assays:
CAL51 [1] = assay: GRmax, 72 h; higher = less effect;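 also: breast cell lines in 384-well plates, nine doses across a 10^4 range, Dye Drop imaging of viable cells vs DMSO and time-zero plates, GR 0 means no net growth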
MDAMB361 [2] = assay: GRmax, 72 h; higher = less effect;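 also: breast cell lines in 384-well plates, nine doses across a 10^4 range, Dye Drop imaging of viable cells vs DMSO and time-zero plates, GR 0 means no net growth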
SUM159 [3] = assay: GRmax, 72 h; higher = less effect;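 also: breast cell lines in 384-well plates, nine doses across a 10^4 range, Dye Drop imaging of viable cells vs DMSO and time-zero plates, GR 0 means no net growth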
SUM149 [4] = assay: GRmax, 72 h; higher = less effect;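 also: breast cell lines in 384-well plates, nine doses across a 10^4 range, Dye Drop imaging of viable cells vs DMSO and time-zero plates, GR 0 means no net growth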
PDX1328 [5] = assay: GRmax, 72 h; higher = less effect
HCC1419 [6] = assay: GRmax, 72 h; higher = less effect
HCC1395 [7] = assay: GRmax, 72 h; higher = less effect
PDXHCI002 [8] = assay: GRmax, 72 h; higher = less effect
CAL851 [9] = assay: GRmax, 72 h; higher = less effect
T47D [10] = assay: GRmax, 72 h; higher = less effect
BT20 [11] = assay: GRmax, 72 h; higher = less effect
HCC70 [12] = assay: GRmax, 72 h; higher = less effect
MDAMB157 [13] = assay: GRmax, 72 h; higher = less effect
BT549 [14] = assay: GRmax, 72 h; higher = less effect
PDX1258 [15] = assay: GRmax, 72 h; higher = less effect
SKBR3 [16] = assay: GRmax, 72 h; higher = less effect
HCC38 [17] = assay: GRmax, 72 h; higher = less effect
HTERT_HME1 [18] = assay: GRmax, 72 h; higher = less effect
CAMA1 [19] = assay: GRmax, 72 h; higher = less effect
HCC1806 [20] = assay: GRmax, 72 h; higher = less effect
HCC1937 [21] = assay: GRmax, 72 h; higher = less effect
MDAMB231 [22] = assay: GRmax, 72 h; higher = less effect
MDAMB468 [23] = assay: GRmax, 72 h; higher = less effect
MCF7 [24] = assay: GRmax, 72 h; higher = less effect
HS578T [25] = assay: GRmax, 72 h; higher = less effect
HCC1428 [26] = assay: GRmax, 72 h; higher = less effect
HCC1500 [27] = assay: GRmax, 72 h; higher = less effect
HCC1954 [28] = assay: GRmax, 72 h; higher = less effect
MCF10A [29] = assay: GRmax, 72 h; higher = less effect
MDAMB436 [30] = assay: GRmax, 72 h; higher = less effect
CAL120 [31] = assay: GRmax, 72 h; higher = less effect
HCC1143 [32] = assay: GRmax, 72 h; higher = less effect
SUM1315 [33] = assay: GRmax, 72 h; higher = less effect
MDAMB453 [34] = assay: GRmax, 72 h; higher = less effect
CAL51 [35] = assay: area over the GR curve, 72 h; higher = more effect;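 also: Dye Drop or Deep Dye Drop imaging of viable cells in 384-well plates (Hoechst nuclei, LIVE/DEAD dye), nine half-log doses, GR normalized to DMSO controls and time-zero plates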
MDAMB361 [36] = assay: area over the GR curve, 72 h; higher = more effect;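 also: Dye Drop or Deep Dye Drop imaging of viable cells in 384-well plates (Hoechst nuclei, LIVE/DEAD dye), nine half-log doses, GR normalized to DMSO controls and time-zero plates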
SUM159 [37] = assay: area over the GR curve, 72 h; higher = more effect;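 also: Dye Drop or Deep Dye Drop imaging of viable cells in 384-well plates (Hoechst nuclei, LIVE/DEAD dye), nine half-log doses, GR normalized to DMSO controls and time-zero plates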
SUM149 [38] = assay: area over the GR curve, 72 h; higher = more effect;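 also: Dye Drop or Deep Dye Drop imaging of viable cells in 384-well plates (Hoechst nuclei, LIVE/DEAD dye), nine half-log doses, GR normalized to DMSO controls and time-zero plates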
PDX1328 [39] = assay: area over the GR curve, 72 h; higher = more effect
HCC1419 [40] = assay: area over the GR curve, 72 h; higher = more effect
HCC1395 [41] = assay: area over the GR curve, 72 h; higher = more effect
PDXHCI002 [42] = assay: area over the GR curve, 72 h; higher = more effect
CAL851 [43] = assay: area over the GR curve, 72 h; higher = more effect
T47D [44] = assay: area over the GR curve, 72 h; higher = more effect
BT20 [45] = assay: area over the GR curve, 72 h; higher = more effect
HCC70 [46] = assay: area over the GR curve, 72 h; higher = more effect
MDAMB157 [47] = assay: area over the GR curve, 72 h; higher = more effect
BT549 [48] = assay: area over the GR curve, 72 h; higher = more effect
PDX1258 [49] = assay: area over the GR curve, 72 h; higher = more effect
SKBR3 [50] = assay: area over the GR curve, 72 h; higher = more effect
HCC38 [51] = assay: area over the GR curve, 72 h; higher = more effect
HTERT_HME1 [52] = assay: area over the GR curve, 72 h; higher = more effect
CAMA1 [53] = assay: area over the GR curve, 72 h; higher = more effect
HCC1806 [54] = assay: area over the GR curve, 72 h; higher = more effect
HCC1937 [55] = assay: area over the GR curve, 72 h; higher = more effect
MDAMB231 [56] = assay: area over the GR curve, 72 h; higher = more effect
MDAMB468 [57] = assay: area over the GR curve, 72 h; higher = more effect
MCF7 [58] = assay: area over the GR curve, 72 h; higher = more effect
HS578T [59] = assay: area over the GR curve, 72 h; higher = more effect
HCC1428 [60] = assay: area over the GR curve, 72 h; higher = more effect
HCC1500 [61] = assay: area over the GR curve, 72 h; higher = more effect
HCC1954 [62] = assay: area over the GR curve, 72 h; higher = more effect
MCF10A [63] = assay: area over the GR curve, 72 h; higher = more effect
MDAMB436 [64] = assay: area over the GR curve, 72 h; higher = more effect
CAL120 [65] = assay: area over the GR curve, 72 h; higher = more effect
HCC1143 [66] = assay: area over the GR curve, 72 h; higher = more effect
SUM1315 [67] = assay: area over the GR curve, 72 h; higher = more effect
MDAMB453 [68] = assay: area over the GR curve, 72 h; higher = more effect

## COc1cc([C@@H]2c3cc4c(cc3[C@@H](O[C@@H]3O[C@@H]5CO[C@@H](C)O[C@H]5[C@H](O)[C@H]3O)[C@H]3COC(=O)[C@H]23)OCO4)cc(OC)c1O [Etoposide] (max 10 µM)
CAL51 [1]
  GRmax, 72 h: -0.21 GR
MDAMB361 [2]
  GRmax, 72 h: -0.517 GR
SUM159 [3]
  GRmax, 72 h: -0.279 GR
SUM149 [4]
  GRmax, 72 h: -0.196 GR
PDX1328 [5]
  GRmax, 72 h: -0.281 GR
HCC1419 [6]
  GRmax, 72 h: 0.0317 GR
HCC1395 [7]
  GRmax, 72 h: -0.225 GR
PDXHCI002 [8]
  GRmax, 72 h: -0.179 GR
CAL851 [9]
  GRmax, 72 h: -0.241 GR
T47D [10]
  GRmax, 72 h: -0.186 GR
BT20 [11]
  GRmax, 72 h: -0.383 GR
HCC70 [12]
  GRmax, 72 h: -0.152 GR
MDAMB157 [13]
  GRmax, 72 h: -0.434 GR
BT549 [14]
  GRmax, 72 h: -0.195 GR
PDX1258 [15]
  GRmax, 72 h: -0.181 GR
SKBR3 [16]
  GRmax, 72 h: -0.317 GR
HCC38 [17]
  GRmax, 72 h: -0.424 GR
HTERT_HME1 [18]
  GRmax, 72 h: -0.384 GR
CAMA1 [19]
  GRmax, 72 h: -0.448 GR
HCC1806 [20]
  GRmax, 72 h: -0.563 GR
HCC1937 [21]
  GRmax, 72 h: -0.118 GR
MDAMB231 [22]
  GRmax, 72 h: 0.12 GR
MDAMB468 [23]
  GRmax, 72 h: -0.513 GR
MCF7 [24]
  GRmax, 72 h: -0.0441 GR
HS578T [25]
  GRmax, 72 h: -0.136 GR
HCC1428 [26]
  GRmax, 72 h: -0.032 GR
HCC1500 [27]
  GRmax, 72 h: -0.0766 GR
HCC1954 [28]
  GRmax, 72 h: -0.265 GR
MCF10A [29]
  GRmax, 72 h: -0.0699 GR
MDAMB436 [30]
  GRmax, 72 h: -0.157 GR
CAL120 [31]
  GRmax, 72 h: -0.166 GR
HCC1143 [32]
  GRmax, 72 h: -0.166 GR
SUM1315 [33]
  GRmax, 72 h: 0.0416 GR
MDAMB453 [34]
  GRmax, 72 h: -0.0601 GR
CAL51 [35]
  area over the GR curve: 0.467 GR
MDAMB361 [36]
  area over the GR curve: 0.343 GR
SUM159 [37]
  area over the GR curve: 0.413 GR
SUM149 [38]
  area over the GR curve: 0.527 GR
PDX1328 [39]
  area over the GR curve: 0.35 GR
HCC1419 [40]
  area over the GR curve: 0.32 GR
HCC1395 [41]
  area over the GR curve: 0.389 GR
PDXHCI002 [42]
  area over the GR curve: 0.488 GR
CAL851 [43]
  area over the GR curve: 0.406 GR
T47D [44]
  area over the GR curve: 0.666 GR
BT20 [45]
  area over the GR curve: 0.459 GR
HCC70 [46]
  area over the GR curve: 0.454 GR
MDAMB157 [47]
  area over the GR curve: 0.609 GR
BT549 [48]
  area over the GR curve: 0.473 GR
PDX1258 [49]
  area over the GR curve: 0.394 GR
SKBR3 [50]
  area over the GR curve: 0.403 GR
HCC38 [51]
  area over the GR curve: 0.449 GR
HTERT_HME1 [52]
  area over the GR curve: 0.542 GR
CAMA1 [53]
  area over the GR curve: 0.571 GR
HCC1806 [54]
  area over the GR curve: 0.648 GR
HCC1937 [55]
  area over the GR curve: 0.393 GR
MDAMB231 [56]
  area over the GR curve: 0.298 GR
MDAMB468 [57]
  area over the GR curve: 0.429 GR
MCF7 [58]
  area over the GR curve: 0.499 GR
HS578T [59]
  area over the GR curve: 0.377 GR
HCC1428 [60]
  area over the GR curve: 0.39 GR
HCC1500 [61]
  area over the GR curve: 0.218 GR
HCC1954 [62]
  area over the GR curve: 0.501 GR
MCF10A [63]
  area over the GR curve: 0.415 GR
MDAMB436 [64]
  area over the GR curve: 0.434 GR
CAL120 [65]
  area over the GR curve: 0.381 GR
HCC1143 [66]
  area over the GR curve: 0.384 GR
SUM1315 [67]
  area over the GR curve: 0.381 GR
MDAMB453 [68]
  area over the GR curve: 0.362 GR
